Reference: publication PMC6905088 (Biochemical pharmacology, 2019)
Where “and” joins values, the source holds several entries; their conditions need not be identical. Identical values can stand only once. Entries after “also recorded” stand apart in the source; their conditions may differ. Like-named read-outs stand apart in the source and are kept apart here. Each block holds one molecule with its values, some of them ahead of it.

Tests used:
CYP2D6 = CYP2D6 (Homo sapiens, UniProt P10635); assay: Recombinant isozyme kinetic assay; settings: Pathway 1 Step 1, substrate terbinafine
CYP3A4 = settings: substrate terbinafine, ref Davis et al. (2019); cited from earlier work
CYP2C9 and 3A4 = assay: In vitro to in vivo scaling of P450 kinetics, CYP2C9 and 3A4 combined; settings: scaled to average protein concentrations in human liver microsomes
CYP2A6 = target: T1, CYP2A6 (Homo sapiens, UniProt P11509); assay: Recombinant isozyme kinetic assay; assay type: in vitro ADME
T1 sequence (P11509 1-494): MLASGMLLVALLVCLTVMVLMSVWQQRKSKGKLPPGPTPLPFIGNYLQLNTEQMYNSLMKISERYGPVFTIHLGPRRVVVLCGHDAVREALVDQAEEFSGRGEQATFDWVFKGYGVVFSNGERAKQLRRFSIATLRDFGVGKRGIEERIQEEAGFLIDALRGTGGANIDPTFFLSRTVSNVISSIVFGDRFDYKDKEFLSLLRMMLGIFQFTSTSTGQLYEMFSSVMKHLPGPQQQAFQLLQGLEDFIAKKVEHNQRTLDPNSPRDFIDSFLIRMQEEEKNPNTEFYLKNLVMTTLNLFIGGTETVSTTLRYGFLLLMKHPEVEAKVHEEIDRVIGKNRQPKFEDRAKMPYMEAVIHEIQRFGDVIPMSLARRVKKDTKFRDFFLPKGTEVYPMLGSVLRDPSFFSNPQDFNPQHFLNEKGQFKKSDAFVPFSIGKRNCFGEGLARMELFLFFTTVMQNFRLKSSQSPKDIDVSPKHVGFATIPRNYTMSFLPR

CYP2C8 = target: T2, CYP2C8 (Homo sapiens, UniProt P10632); assay: Recombinant isozyme kinetic assay; settings: substrate terbinafine
T2 sequence (P10632 1-490): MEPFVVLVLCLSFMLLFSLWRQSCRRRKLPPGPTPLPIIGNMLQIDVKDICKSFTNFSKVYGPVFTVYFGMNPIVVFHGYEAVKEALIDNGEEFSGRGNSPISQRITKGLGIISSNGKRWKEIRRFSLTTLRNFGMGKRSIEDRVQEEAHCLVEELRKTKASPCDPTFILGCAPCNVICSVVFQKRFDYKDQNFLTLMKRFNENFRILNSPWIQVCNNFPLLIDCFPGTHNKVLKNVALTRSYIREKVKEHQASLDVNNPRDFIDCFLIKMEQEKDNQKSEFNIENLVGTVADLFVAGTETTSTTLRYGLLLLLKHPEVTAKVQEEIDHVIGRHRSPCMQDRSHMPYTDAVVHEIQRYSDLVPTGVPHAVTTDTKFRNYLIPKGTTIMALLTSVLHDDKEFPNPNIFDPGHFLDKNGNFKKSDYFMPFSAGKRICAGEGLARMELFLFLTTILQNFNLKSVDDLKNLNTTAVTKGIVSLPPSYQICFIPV

CYP2C19 = settings: substrate terbinafine, ref Davis et al. (2019); cited from earlier work
[1] = ref Terbianfine Product Monograph, Canada, 1995; cited from earlier work
[2] = ref Vago et al., 1994, Kovarik et al., 1995; cited from earlier work
CYP2E1 = CYP2E1 (Homo sapiens, UniProt P05181); assay: Recombinant isozyme kinetic experiments, CYP2E1; assay type: in vitro ADME
CYP2E1, sequence (P05181 whole entry): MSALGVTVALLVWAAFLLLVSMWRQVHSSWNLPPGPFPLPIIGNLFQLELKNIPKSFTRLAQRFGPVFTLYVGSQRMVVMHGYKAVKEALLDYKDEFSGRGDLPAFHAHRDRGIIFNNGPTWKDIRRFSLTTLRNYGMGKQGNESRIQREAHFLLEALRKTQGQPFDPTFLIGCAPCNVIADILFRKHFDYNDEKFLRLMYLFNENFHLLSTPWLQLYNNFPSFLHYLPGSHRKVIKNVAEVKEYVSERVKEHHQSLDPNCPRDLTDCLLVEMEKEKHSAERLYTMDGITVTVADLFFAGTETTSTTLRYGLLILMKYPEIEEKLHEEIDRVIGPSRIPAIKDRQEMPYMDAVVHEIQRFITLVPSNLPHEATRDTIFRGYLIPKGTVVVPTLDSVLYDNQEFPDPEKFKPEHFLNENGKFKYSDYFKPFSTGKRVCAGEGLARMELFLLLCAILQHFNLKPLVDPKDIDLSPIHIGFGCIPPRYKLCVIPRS

CYP2C9 = CYP2C9 (Homo sapiens, UniProt P11712); assay: Recombinant isozyme kinetic assay; settings: CYP2C9; substrate terbinafine
CYP2B6 = target: T3, CYP2B6 (Homo sapiens, UniProt P20813); assay: Recombinant isozyme kinetic assay
T3 sequence (P20813 1-491): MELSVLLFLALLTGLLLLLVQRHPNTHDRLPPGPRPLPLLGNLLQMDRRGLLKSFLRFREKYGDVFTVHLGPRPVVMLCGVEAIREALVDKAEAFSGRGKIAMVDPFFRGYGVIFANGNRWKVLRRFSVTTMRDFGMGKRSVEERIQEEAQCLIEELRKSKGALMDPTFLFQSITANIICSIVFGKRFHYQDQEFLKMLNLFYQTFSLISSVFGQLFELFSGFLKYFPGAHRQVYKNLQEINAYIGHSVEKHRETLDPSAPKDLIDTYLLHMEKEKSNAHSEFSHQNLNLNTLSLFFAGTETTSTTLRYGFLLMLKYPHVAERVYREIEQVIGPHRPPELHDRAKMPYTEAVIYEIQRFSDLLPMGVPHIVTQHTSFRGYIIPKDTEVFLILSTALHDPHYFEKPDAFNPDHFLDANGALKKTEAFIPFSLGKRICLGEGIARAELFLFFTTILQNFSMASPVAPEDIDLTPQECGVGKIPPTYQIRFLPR

[3] = substrate: CN(C/C=C/C#CC(C)(C)C)Cc1cccc2ccccc12
[4] = substrate: CN(C/C=C/C#CC(C)(C)C)Cc1cccc2ccccc12; assay: cells, lysate or membranes named; settings: substrate terbinafine, pH 7.4, 37.0 °C
[5] = other: CYP2C8, Pathway 2 Step 2.1
[6] = other: CYP2C9, Pathway 2 Step 2.1
[7] = other: CYP1A2, Pathway 1 Step 1
[8] = other: CYP1A2, Pathway 2 Step 2.1

TBF-A formation (steady-state kinetic constants) (CYP2D6): undetected | combined contribution of CYP2C9 and 3A4 to every metabolic step (CYP2C9 and 3A4): over 60% | hydroxyterbinafine formation (kinetic constants) (CYP2C8): undetected | terbinafine dihydrodiol formation (kinetic constants) (CYP2C8): undetected | role in terbinafine metabolism (CYP2E1): no role | hydroxyterbinafine formation (kinetic constants) (CYP2C9): undetected | TBF-A formation (steady-state kinetic constants) (CYP2B6; Pathway 1 Step 1, substrate terbinafine): undetected | Km at 30 min (CYP2B6; human, recombinant CYP2B6 Supersomes, pH 7.4, Km or S50, hydroxyterbinafine formation, substrate terbinafine): 300 ± 100 µM
Molecule: CN(C/C=C/C#CC(C)(C)C)Cc1cccc2ccccc12 [terbinafine]
Hill slope (n), hydroxyterbinafine formation (CYP3A4): 1.30 ± 0.16 | Hill slope (n), terbinafine dihydrodiol formation (CYP3A4): 2.0 ± 0.32 | metabolite formation / role in terbinafine metabolism (CYP2A6): not able to generate metabolites; also recorded: no role | Hill slope (n), hydroxyterbinafine formation (CYP2C19): 1.40 ± 0.11 | Hill slope (n), terbinafine dihydrodiol formation (CYP2C19): 0.58 ± 0.08 | risk of idiosyncratic liver toxicity, one in N patients [1]: 45,000–54,000 | reported plasma terbinafine and metabolite levels [2]: ≤ 3 µM

B1: CYP2D6 (Homo sapiens) (protein)
chain: MGLEALVPLAVIVAIFLLLVDLMHRRQRWAARYPPGPLPLPGLGNLLHVDFQNTPYCFDQLRRRFGDVFSLQLAWTPVVVLNGLAAVREALVTHGEDTADRPPVPITQILGFGPRSQGVFLARYGPAWREQRRFSVSTLRNLGLGKKSLEQWVTEEAACLCAAFANHSGRPFRPNGLLDKAVSNVIASLTCGRRFEYDDPRFLRLLDLAQEGLKEESGFLREVLNAVPVLLHIPALAGKVLRFQKAFLTQLDELLTEHRMTWDPAQPPRDLTEAFLAEMEKAKGNPESSFNDENLRIVVADLFSAGMVTTSTTLAWGLLLMILHPDVQRRVQQEIDDVIGQVRRPEMGDQAHMPYTTAVIHEVQRFGDIVPLGVTHMTSRDIEVQGFRIPKGTTLITNLSSVLKDEAVWEKPFRFHPEHFLDAQGHFVKPEAFLPFSAGRRACLGEPLARMELFLFFTSLLQHFSFSVPTGQPRPSHHGVFAFLVSPSPYELCAVPR
K0.5 [3]: 16 ± 3.2 µM and 25 ± 4.1 µM

B2: CYP2C8 (Homo sapiens) (protein)
chain: T2 sequence (P10632 1-490)
Km [4, 5]: 72 ± 12 µM | kcat [4, 5]: 260 ± 12 pmol/min/nmol protein

B3: CYP2C9 (Homo sapiens) (protein)
chain: MDSLVVLVLCLSCLLLLSLWRQSSGRGKLPPGPTPLPVIGNILQIGIKDISKSLTNLSKVYGPVFTLYFGLKPIVVLHGYEAVKEALIDLGEEFSGRGIFPLAERANRGFGIVFSNGKKWKEIRRFSLMTLRNFGMGKRSIEDRVQEEARCLVEELRKTKASPCDPTFILGCAPCNVICSIIFHKRFDYKDQQFLNLMEKLNENIKILSSPWIQICNNFSPIIDYFPGTHNKLLKNVAFMKSYILEKVKEHQESMDMNNPQDFIDCFLMKMEKEKHNQPSEFTIESLENTAVDLFGAGTETTSTTLRYALLLLLKHPEVTAKVQEEIERVIGRNRSPCMQDRSHMPYTDAVVHEVQRYIDLLPTSLPHAVTCDIKFRNYLIPKGTTILISLTSVLHDNKEFPNPEMFDPHHFLDEGGNFKKSKYFMPFSAGKRICVGEALAGMELFLFLTSILQNFNLKSLVDPKNLDTTPVVNGFASVPPFYQLCFIPV
kcat ([4]; other: CYP2C9, Pathway 1 Step 1): 800 ± 170 pmol/min/nmol protein | Km [4, 6]: 20 ± 5.1 µM | kcat [4, 6]: 400 ± 19 pmol/min/nmol protein | K0.5 ([4]; other: CYP2C9, Hill equation): 72 ± 92 µM

B4: CYP1A2 (Homo sapiens) (protein)
chain: MALSQSVPFSATELLLASAIFCLVFWVLKGLRPRVPKGLKSPPEPWGWPLLGHVLTLGKNPHLALSRMSQRYGDVLQIRIGSTPVLVLSRLDTIRQALVRQGDDFKGRPDLYTSTLITDGQSLTFSTDSGPVWAARRRLAQNALNTFSIASDPASSSSCYLEEHVSKEAKALISRLQELMAGPGHFDPYNQVVVSVANVIGAMCFGQHFPESSDEMLSLVKNTHEFVETASSGNPLDFFPILRYLPNPALQRFKAFNQRFLWFLQKTVQEHYQDFDKNSVRDITGALFKHSKKGPRASGNLIPQEKIVNLVNDIFGAGFDTVTTAISWSLMYLVTKPEIQRKIQKELDTVIGRERRPRLSDRPQLPYLEAFILETFRHSSFLPFTIPHSTTRDTTLNGFYIPKKCCVFVNQWQVNHDPELWEDPSEFRPERFLTADGTAINKPLSEKMMLFGMGKRRCIGEVLAKWEIFLFLAILLQQLEFSVPPGVKVDLTPIYGLTMKHARCEHVQARLRFSIN
Km [4, 7]: 75 ± 42 µM and 31 ± 17 µM | kcat [4, 7]: 100 ± 12 pmol/min/nmol protein | Km [4, 8]: 120 ± 23 µM | kcat [4, 8]: 530 ± 38 pmol/min/nmol protein | K0.5 ([4]; other: CYP1A2, Hill equation): 130 ± 87 µM | K0.5 ([4]; other: CYP1A2): 45 ± 5.7 µM
